Measured values reported in patent publication US11007206B2, “Cyclic boronic acid ester derivatives and therapeutic uses thereof” (Melinta Subsidiary Corp., priority 2012, dated 2021).
In brackets after ≈: the same amount, converted by molar mass. Like-named read-outs stand apart in the source and are kept apart here.

Key:
[1] = system: carbapenem-resistant, KPC-producing K. pneumoniae; assay: Mouse model of thigh infection, Biapenem +/- Compound I (Example 6); type: in vivo; settings: IP 50 mpk Biapenem +/- 50 mpk Compound I every two hours for 24 hours
Description: Example 6 provides the in vivo efficacy study of the carbapenem Biapenem in combination with Compound I in mouse models of pulmonary and thigh infection due to the carbapenem-resistant, KPC-producing K. pneumoniae.
Four K. pneumoniae strains with Biapenem MICs ranging between 0.25-64 mg/L were used. Neutropenic mice were infected with ˜10^5 CFU/lung or ˜10^6 CFU/thigh. Intraperitoneal treatments with 50 mpk Biapenem+/−50 mpk Compound I were initiated 2 hours post-infection as a single dose or continued every two hours for 24 hours. Mice were sacrificed on designated time points and colony counts in tissue determined.

in vivo = assay: in vivo; set-up: species or system Swiss-Webster mice; settings: mouse, ip
Description: Example 2 provides a summary of two pharmacokinetic studies of Biapenem conducted in Swiss-webster mice. The pharmacokinetics of 100 mg/kg and 25 mg/kg of Biapenem via the intraperitoneal route was discussed below.
Biapenem power was purchased from Hisun Pharmaceuticals. 20 mg of Biapenem was dissolved in 0.1 M NaH2PO4 for a basic stock solution. For animal studies, this stock solution was further diluted in 0.9% saline to the appropriate concentration.
The specifications for animals used on this study were as follows: • Species: Mouse • Strain: CFW (Swiss) • Gender: Female • Source: Harlan Laboratories (Livermore, Calif.) • Number of Animals: 33 for each dose • Body Weight Range: 18-22 g at the start of the study
After acclimation, mice were administered a single intraperitoneal dose of biapenem at 25 or 100 mg/kg. […] Blood samples (one sample per animal) were collected by cardiac puncture in a heparin containing tube. The collected heparin tubes were centrifuged within 5 min of collection at 12000 g for 5 min to obtain plasma. The plasma samples were stored on −80° C. until analyzed.
Biapenem standard curves were prepared in 50% plasma-50% 1M MOPS buffer, pH=7.4 from 1 to 250 ug/mL. 20 uL of sample or standard was added into a 96-well deep well plate. Then 500 uL of 10% water-45% methanol-45% acetonitrile containing 2 ug/mL of meropenem was used as an internal standard. The plate was vortexed for 15 min. at 3,000 RPM. 50 uL of supernatant was removed and added 300 uL of water. 10 uL of samples were injected onto an HPLC-MS system for quantification.
The HPLC-MS conditions for the Biapenem plasma analysis are as follows: • Column: Supelco Discovery HS F5 or equivalent pentafluorophenyl column, 5 um, 50×2.1 mm. • Flow rate: 0.6 mL/min. • Mobile phase A: 0.1% formic acid in water. • Mobile phase B: 0.1% formic acid in acetonitrile. • Gradient: 5-70% B in 1.9 min. • Mass spectrometer: Positive ion mode with electrospray ionization. • MS/MS: Biapenem-Q1-m/e=350.8, Q3-m/e=110.1. • meropenem-Q1-m/e=384.1, Q3-m/e=141.1.
Serum concentrations were determined using HPLC. Serum concentrations were fit by using Non-compartmental model of WinNonlin Software (Pharsight. Version 5.3, Mountain View, Calif.).

[2] = system: multi-drug resistant strains of Enterobacteriaceae, including those producing serine carbapenemases; assay: Checkerboard MIC of Biapenem alone or in combination with Compound I at fixed concentrations (Example 4); type: cell-based
Description: The evaluation of Compound I in combination with the carbapenem antibiotic Biapenem against multi-drug resistant strains of Enterobacteriaceae, including those producing serine carbapenemases were also conducted. Antibiotic potentiation activity of Compound I was studied in checkerboard MIC experiments and time-kill assays. The MICs of Biapenem were […]) against characterized and engineered isolates producing various beta-lactamases, as well as in geographically diverse panels of multi-drug resistant strains of Enterobacteriaceae (including strains that express the most relevant beta-lactamases).

K. pneumoniae strains = assay: Biapenem MICs of the K. pneumoniae strains used in the infection models (Example 6); type: cell-based; settings: Klebsiella pneumoniae
[3] = Single-dose pharmacokinetics of Compound I, intravenous 30-minute infusion in Beagle dogs (Example 5); type: in vivo; settings: Dog; for AUC / Cmax / half-life: Beagle, in vivo
Description: (§1) Example 5 provides the single-dose pharmacokinetic studies of Compound I inpreclinical species, including intraperitoneal administration to Swiss-Webster mice and intravaneous administration to Sprague-Dawley rats, Beagle dogs, and Cynomologus monkeys.
(§2) Intravaneous doses of Compound I were administered as 30-minute infusions. The pharmacokinetics of Compound I were also studied with coadministration of the carbapenem, Biapenem. Compound I concentrations were determined using an LC-MS detection method.

[4] = Single-dose pharmacokinetics of Compound I, intravenous 30-minute infusion in Cynomologus monkeys (Example 5); type: in vivo; settings: Monkey; for half-life / AUC / Cmax: in vivo
Description: as §1, §2

[5] = Single-dose pharmacokinetics of Compound I across all preclinical species, summary statements incl. coadministration of Biapenem (Example 5); type: in vivo
Description: as §1, §2

[6] = female, CFW (Swiss-Webster), 25 mg/kg
[7] = female, CFW (Swiss-Webster), 100 mg/kg
[8] = female, CFW (Swiss-Webster), 100 mg/kg, Calc. Conc. (plasma concentration)

## C[C@@H](O)[C@H]1C(=O)N2C(C(=O)[O-])=C(SC3Cn4cnc[n+]4C3)[C@H](C)[C@H]12 (some centres unmarked) [Biapenem]
[1]; strain ATCC 43816, neutropenic mice
  Change in Log CFU/thigh ± SD @ 24 h: −1.09 ± 0.30 Log CFU/thigh
[1]; strain KP1004, neutropenic mice
  Change in Log CFU/thigh ± SD @ 24 h: +0.71 ± 0.10 Log CFU/thigh
[1]; strain KP1061, neutropenic mice
  Change in Log CFU/thigh ± SD @ 24 h: +1.67 ± 0.09 Log CFU/thigh
[1]; strain KP1074, neutropenic mice
  Change in Log CFU/thigh ± SD @ 24 h: +0.98 ± 0.46 Log CFU/thigh
In vivo; [6]
  Cl: 26.7 mL/min/kg
  Cmax: 31200 ng/mL
  half-life: 10.2 min
In vivo; [7]
  Cl: 16 mL/min/kg
  Cmax: 286000 ng/mL
  half-life: 12.6 min
In vivo; [8]
  concentration at 0.08 h: 1770 ng/mL
  concentration at 0.25 h: 68400 ng/mL
  concentration at 0.5 h: 120 ng/mL
  concentration at 0.75 h: 30500 ng/mL
  concentration at 3 h: 12.3 ng/mL
  concentration at 4 h: 10.2 ng/mL
In vivo; 25 mg/kg
  AUC: 15.56 mg·h/kg
  Calc. Conc. (plasma concentrations of Biapenem): No Peak
In vivo; 100 mg/kg
  AUC: 103.55 mg·h/kg
[2]; read-out: Biapenem MICs in the presence of Compound I, in the presence of 0.3 to 5 μg/ml of Compound I, characterized strains of Enterobacteriaceae with serine carbapenemases
  MIC: < 0.25 µg/mL
[2]; read-out: Biapenem MICs, Biapenem alone, KPC-producing strains including those expressing multiple classes of enzymes
  MIC: 8 to 64 µg/mL
[2]; read-out: Biapenem MICs, Biapenem alone, KPC-producing strains used in the time-kill studies
  MIC: 16 to 32 µg/mL
[2]; read-out: MIC90 of Biapenem with Compound I
  MIC90: 0.5 µg/mL
K. pneumoniae strains; ATCC43816, K. pneumoniae strain ATCC 43816, read-out: Biapenem MIC Alone
  MIC: 0.25 µg/mL (≈ 0.713 µM)
K. pneumoniae strains; ATCC43816, K. pneumoniae strain ATCC 43816, with Compound I 5 μg/mL, read-out: Biapenem MIC with Compound I (5 μg/mL)
  MIC: 0.25 µg/mL (≈ 0.713 µM)
K. pneumoniae strains; K. pneumoniae strain KP1004, read-out: Biapenem MIC Alone
  MIC: 16 µg/mL (≈ 45.7 µM)
K. pneumoniae strains; K. pneumoniae strain KP1004, with Compound I 5 μg/mL, read-out: Biapenem MIC with Compound I (5 μg/mL)
  MIC: ≤ 0.06 µg/mL
K. pneumoniae strains; K. pneumoniae strain KP1061, read-out: Biapenem MIC Alone
  MIC: 32 µg/mL (≈ 91.3 µM)
K. pneumoniae strains; K. pneumoniae strain KP1061, with Compound I 5 μg/mL, read-out: Biapenem MIC with Compound I (5 μg/mL)
  MIC: ≤ 0.06 µg/mL
K. pneumoniae strains; K. pneumoniae strain KP1074, read-out: Biapenem MIC Alone
  MIC: 64 µg/mL (≈ 183 µM)
K. pneumoniae strains; K. pneumoniae strain KP1074, with Compound I 5 μg/mL, read-out: Biapenem MIC with Compound I (5 μg/mL)
  MIC: 0.25 µg/mL (≈ 0.713 µM)
K. pneumoniae strains; four K. pneumoniae strains used in the infection models, read-out: Biapenem MICs
  MIC: 0.25 to 64 µg/mL (≈ 0.713 to 183 µM)

## O=C(O)C[C@@H]1CC[C@H](NC(=O)Cc2cccs2)B(O)O1 [Compound I]
[3]; 2 mg/kg IV
  AUC: 6130 ± 650 ng·h/mL
  Cmax: 6490 ± 310 ng/mL
  half-life: 39.6 ± 3.6 min
  CL or CL/F: 5.5 ± 0.5 mL/min/kg
[3]; 6 mg/kg IV
  AUC: 18400 ± 2360 ng·h/mL
  Cmax: 19600 ± 1420 ng/mL
  half-life: 42.6 ± 5.4 min
  CL or CL/F: 5.5 ± 0.67 mL/min/kg
[3]; 20 mg/kg IV
  AUC: 73600 ± 5380 ng·h/mL
  Cmax: 66800 ± 6160 ng/mL
  half-life: 91.8 ± 43.8 min
  CL or CL/F: 4.5 ± 0.33 mL/min/kg
[4]; 2 mg/kg IV
  CL or CL/F: 8.5 ± 1.2 mL/min/kg
  AUC: 3960 ± 510 ng·h/mL
  Cmax: 5350 ± 280 ng/mL
  half-life: 34.2 ± 1.8 min
[4]; 6 mg/kg IV
  CL or CL/F: 8.33 ± 1.3 mL/min/kg
  AUC: 12200 ± 1890 ng·h/mL
  Cmax: 17000 ± 1680 ng/mL
[4]; 20 mg/kg IV
  CL or CL/F: 8 ± 0.5 mL/min/kg
[4]; cynomolgus, 6 mg/kg IV
  half-life: 33 ± 7.2 min
[4]; cynomolgus, 20 mg/kg IV
  AUC: 41800 ± 2530 ng·h/mL
  Cmax: 54900 ± 3320 ng/mL
  half-life: 113 ± 104 min
[5]; across all species (mice, rats, dogs, monkeys), single dose
  Pharmacokinetic properties: linear and favorable pharmacokinetic properties
[5]; across preclinical species, single dose
  Dose dependence of clearance and volume of distribution: independent of dose
[5]; coadministration of Biapenem
  PK drug interactions between Compound I and Biapenem: No PK drug interactions
